# Values quoted from earlier work as cited in patent publication US10638990B2, “Sunscreen compositions with improved water resistance of UVA sunscreen active agents” (Edgewell Personal Care Brands, LLC, priority 2015, dated 2020).
# Conditions: calculated partition coefficient between octanol and water
row,SMILES,Log P @25° C.
1,"CCOCCOC(=O)/C=C/c1ccc(OC)cc1 [Cinoxate, Ethoxyethyl methoxy cinnamate]",2.55
2,"CCOC(=O)c1ccc(N(CC(C)O)CC(C)O)cc1 (stereo not drawn) [Ethyl dihydroxypropyl PABA, Ethyl-4-bis(2-hydroxypropyl-aminobenzoate)]",2.84
3,"CC1CCC(C(C)C)C(OC(=O)c2ccccc2N)C1 (stereo not drawn) [Menthyl anthranilate, Menthyl-O-aminobenzoate]",5.05
